Results as given in patent US12697322B2, “Methods of treating cancer using androgen receptor antagonists” (Garvan Institute of Medical Research, priority 2019, dated 2026).

Key:
[1] = test system: HMLER and HCC38 CD44^Lo cells; assay: Flow cytometry of chemotherapy-induced CD44^Lo to CD44^Hi plasticity; format: cell-based, human; conditions: one dose of chemotherapy for 72 hours
Description: Cells were stained and fixed as with DHT treatment.
Using purified populations of CD44^Lo cells (with no CD44^Hi fraction) the effects of chemotherapy on cellular plasticity was investigated using flow cytometry.

ELX12-58 PDX model = ELX12-58 PDX model with PEG-Doxorubicin or Cisplatin and Seviteronel (FIG. 15); format: in vivo, NSG female mice; conditions: ELX-12-58 PDX
Description: Freshly cut tumour chunks derived from a previously expanded tumour (ELX12-58 PDX model) were transferred into the mammary fat pad of NSG female mice. 15 animals were enrolled per treatment arm. Tumour size was monitored by caliper measurement as previously described. At the time tumour size reached 50-150 mm^3 animals were randomized into treatment arms: Vehicle (Veh), PEG-Doxorubicin (PEG-Dox) and PEG-Dox+Sev. Drug preparation and treatment administration was followed as previously described for the first round of treatment. PEG-Dox (Liposomal Doxorubicin Sun. R:202827) was administrated by weekly injections to a final concentration of 4 mg/kg. At treatment end-point animals were harvested and primary tumour, lymph node metastasis (if present), lung and liver were collected to generate FFPEs for histopathology analysis. […] Treatment was extended for 2 additional weeks, following the 3rd dose of chemotherapy, administrating a total of 5 EPG-Dox injections for these animals. Animals were followed up for 2.5 months, culling mice before if reached ethical end-point. Primary tumour and organs to determine metastatic burden were collected.

N.N.[Cl][Pt][Cl] [Cisplatin]
induction of CD44^Lo-to-CD44^Hi transition by chemotherapy [1]: induce CD44^Lo cells to transition to the CD44^Hi state
tumour burden (ELX12-58 PDX model): did not reduce ELX-12-58 tumour burden
